Converted amounts (≈) assume the structure as drawn.
Test: Solubility experiment (thermodynamic solubility at 37° C.)
Assay type: physicochemical
Details: for solubility at 24 h: 37 °C, thermodynamic from solid
Protocol: The solubility of the free base and salt of the compound in water, Fasted State Simulated Gastric Fluid (FaSGF), Fasted State Simulated Intestinal Fluid (FaSSIF) and Fed State Simulated Intestinal Fluid (FeSSIF) was compared, so as to provide a basis for evaluating the druggability of the crystal form and salt.
About 2 to 3 mg of crystal forms I, II and III of the free base of Example 40 were weighed, suspended in 1 mL of Fasted State Simulated Gastric Fluid (FaSSGF), Fasted State Simulated Intestinal Fluid (FaSSIF), Fed State Simulated Intestinal Fluid (FeSSIF) and pure water respectively, and shaked for 24 hours. Thermodynamic solubility of the compound at 37° C. was determined using HPLC by external standard method.

C[C@@H]1C[C@H](C(=O)Cn2ccc(C#N)n2)[C@@]2(C)CC[C@H]3[C@@H](CC[C@@H]4C[C@](C)(O)CC[C@@H]43)[C@H]12 [Crystal form I, 1-(2-((3R,5R,8R,9R,10S,13S,14S,15R,17S)-3-Hydroxy-3,13,15-trimethylhexadecahydro-1H-cyclopenta[a]phenanthren-17-yl)-2-oxoethyl)-1H-pyrazole-3-carbonitrile]
solubility at 24 h (FaSSGF (Fasted State Simulated Gastric Fluid), fassgf or other biorelevant, FaSSGF): < 1 µg/mL | solubility at 24 h (FaSSIF (Fasted State Simulated Intestinal Fluid), fassif): 3.26 µg/mL (≈ 7.7 µM) | solubility at 24 h (FeSSIF (Fed State Simulated Intestinal Fluid), fessif): 18.2 µg/mL (≈ 43 µM) | solubility compared among the three crystal forms (in words) (four media): the lowest | solubility at 24 h (pure water, water): < 1 µg/mL

Reference: US12590118B2, “Salt and crystal form of steroid derivative regulator” (Shanghai Hansoh Biomedical Co., Ltd., priority 2019, dated 2026)
